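Cells were grown in 96-well plates and exposed to each compound for 48 hours at five concentrations; endpoints were interpolated linearly between bracketing concentrations, or set to the highest concentration if not reached. GI50 = concentration required for 50% inhibition of growth. TGI: concentration producing complete growth inhibition.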
Columns and labels:
Assay in all cases: NCI tumour cell line growth inhibition, 48 h
HCT-116 colon = tested on: HCT-116 colon
SK-MEL-5 melanoma = tested on: SK-MEL-5 melanoma
IGROV1 ovarian = tested on: IGROV1 ovarian
A498 renal = tested on: A498 renal
UACC-257 melanoma = tested on: UACC-257 melanoma
RXF 393 renal = tested on: RXF 393 renal
ACHN renal = tested on: ACHN renal
COLO 205 colon = tested on: COLO 205 colon
UO-31 renal = tested on: UO-31 renal
EKVX NSCLC = tested on: EKVX NSCLC

SMILES	TGI (HCT-116 colon) [µM]	TGI (SK-MEL-5 melanoma) [µM]	TGI (IGROV1 ovarian) [µM]	TGI (A498 renal) [µM]	TGI (UACC-257 melanoma) [µM]	TGI (RXF 393 renal) [µM]	TGI (ACHN renal) [µM]	TGI (COLO 205 colon) [µM]	TGI (UO-31 renal) [µM]	TGI (EKVX NSCLC) [µM]	GI50 (HCT-116 colon) [µM]	GI50 (SK-MEL-5 melanoma) [µM]	GI50 (IGROV1 ovarian) [µM]	GI50 (A498 renal) [µM]	GI50 (UACC-257 melanoma) [µM]	GI50 (RXF 393 renal) [µM]	GI50 (ACHN renal) [µM]	GI50 (COLO 205 colon) [µM]	GI50 (UO-31 renal) [µM]	GI50 (EKVX NSCLC) [µM]
CC(C)(N)C(=O)N[C@@H]1C(=O)N2[C@@H]1SC(C)(C)[C@@H]2C(=O)O	> 100	> 100	> 100	> 100	> 100	> 100	> 100	> 100	> 100	> 100										
Nc1nc(-c2ccc3ccccc3c2)cc(-c2cc(-c3ccc4ccccc4c3)nc(N)n2)n1	> 100	> 100	> 100	> 100	> 100	> 100	> 100	> 100	> 100	> 100										
Cc1cc(Cl)ccc1Nc1nc2c(s1)C(=O)c1ccccc1C2=O	5.25	3.34	11.9	42	5.64	16.8	10.3	16.8	11.6	21.4										
COc1ccc(Nc2ncccc2C(=O)NCc2cn(Cc3cccc(Oc4ccccc4)c3)nn2)c(OC)c1	> 100	7.93	> 100	13	> 100	> 74.2	> 100	5.7	> 100	> 100	1.66	0.635	5.18	1.33	13.4	1.91	3.94	2.11	5.54	9.61
Oc1[nH]c2ccccc2c1/C=c1/ccc2c(c1)N=C(c1cc(F)cc(F)c1)N=2	8.06	19.1	28.1	17	26.4	25	21.3	23.4	20.1	17.5	2.43	5.82	10.5	1.53	10.6	8.2	7.39	8.45	3.42	2.63
CCCCCCn1c2c(c3c(O)cccc31)C(=O)c1ccccc1-2	30.9	34.6	39.6	33.2	32.9	28	30.3	> 100	31.2	43.5	17.2	19.4	19.2	18.9	15.1	12	16.6	38.8	16.1	20.1
CN1c2ccccc2S(=O)(=O)n2c(COc3ccccc3)nnc21	> 100	> 100	> 100	> 100	> 100	> 100	> 100	> 100	> 100	> 100										
Cn1cc(-c2ccc3nnc(C(F)(F)c4ccc5ncccc5c4)n3n2)cn1	> 100	> 100	> 100	> 100	> 100	> 86.6	> 100	> 100	> 100	> 100	61.9	43.2	53.8	24.8	> 100	25.9	32.8	59.6	28.4	> 83.3
CC(=O)Nc1ccc(Cc2ccc3[nH]c(=O)cc(C)c3c2)cc1	> 100	> 100	> 100	> 100	> 100	> 100	> 100	> 100	> 100	> 100										
CCOC(=O)Cn1c(=O)[nH]c(=O)c2[nH]cnc21	> 100	> 100	> 100	> 100	> 100	> 100	> 100	> 100	> 100	> 100										
COC(=O)C1=Cc2cn(S(=O)(=O)c3ccc(C)cc3)c3cccc(c23)C(C=C(C)C)N1C(C)=O (stereo not given)	> 100	> 100	> 100	> 100	> 100	> 100	> 100	18.3	> 100	> 100										
CNC(=O)c1cc(Oc2ccc3nc(NC(=O)Nc4cc(C(F)(F)F)cc(C(F)(F)F)c4)sc3c2)ccn1	2.46	2.09	3.16	2.46	2.62	2.99	1.98	2.32	2.68	4.56	1.12	0.593	1.25	1.02	1.15	1.25	0.542	0.822	1.26	1.28
CSCC(COC(C)=O)(CSC)c1ccncc1	> 100	> 100	> 100	> 100	> 100	> 100	> 100	> 100	> 100	> 100										
[Au+].c1c[n-]cn1.c1ccc([PH+](c2ccccc2)c2ccccc2)cc1	14.6	14.4	13.7	34.9	15.8	2.66	17.6	4.07	19.4	38.2	5.19	3.08	2.02	17.4	5.04	1.3	6.19	1.99	8.36	11

From PubChem BioAssay (NCI)
